In patent US9493420B2, “Quinoline derivatives and uses thereof” (Portland State University, priority 2005, dated 2016) one finds IC50 data, which are given here for 1 molecule.

For the assay, the system named is D6 (CQ^S) P. falciparum strain. Kind of assay: In vitro fluorescence (Sybr Green I) growth inhibition assay, D6 strain. To be noted: Plasmodium falciparum, D6; Table 13; growth inhibition; read-out: IC50 (nM) D6 (CQ^S). The class given is cell-based. An excerpt:
One exemplary method for measuring inhibitory effects of RCQ compound in vitro has been reported by Smilkstein et al. (Antimicrob. Agents Chemother., 48(5):1803-1806, 2004). This method employs fluorescent detection of the level of parasitemia in cultured red blood cells and can be automated for high-throughput screening of antimalarial RCQs. This exemplary method allows the inhibitory agent (such as a RCQ) to be in contact with the parasite for an entire developmental cycle without purine starvation, which is in contrast to the traditional ^3H-hypoxanthine method (Desjardins et al., Antimicrob. Agents Chemother., 16(6):710-718, 1979). Briefly, to perform the Smilkstein et al. method, an initial parasitemia of approximately 0.2% is attained by adding uninfected red blood cells (RBCs) to a stock culture of Plasmodium sp.-infected RBCs. […] After a period of incubation (such as about 72 hours), a sufficient amount (e.g., 100 μL) of a fluorescent DNA binding dye-detergent mixture (e.g., Sybr Green I dye-detergent mixture) to lyse cells and bind to DNA is added to the reactions. Because uninfected RBCs have no DNA, only parasite DNA (in infected RBCs) is available for binding to the fluorescent dye (e.g., Sybr Green I). Samples are then incubated in the dark for a period of time (e.g., one hour), followed by measurement of levels of fluorescence. For Sybr Green I, excitation and emission wavelength are 485 and 530 nm, respectively. Fluorescence readings, which represent the amount of parasite DNA in the sample, can be plotted against the Log [drug] and fit to a curve by nonlinear regression to obtain the IC50 value for the tested compound.
An in vitro fluorescence assay for determining IC50 of antimalarial drugs was performed as previously described by Smilkstein et al. (Antimicrob. Agents Chemother., 48(5):1803-1806, 2004). This relatively low-cost procedure can be automated for high-throughput screening of the antimalarial activities of RCQs described herein. Advantageous, this method also allows the tested agent (e.g, a RCQ) to be in contact with the parasite for an entire developmental cycle without purine starvation (which occurs with the commonly used ^3H-hypoxanthine method; see, e.g., Desjardins et al., Antimicrob. Agents Chemother., 16, (6):[…], 1979).
Briefly, an initial parasitemia of approximately 0.2% was attained by addition of uninfected red blood cells to a stock culture of cells infected with Dd2 (CQ^R) or D6 (CQ^S) P. falciparum strains. A 10 mM RCQ_02 solution (in DMSO) was prepared. RCQ_02 (at a final concentration from 10^−11 to 10^−4 M) and infected red blood cells (at a final concentration of 2% (v/v)) were mixed in 100 μL samples in individual wells of a 96-well plate. Each sample was prepared in triplicate. A triplicate set of reactions containing CQ (instead of RCQ_02) was included as a control. After a 72 hour incubation period, Sybr Green I dye-detergent mixture (100 μL) was added to each reaction. The samples were further incubated for an hour in the dark, and then placed in a 96-well fluorescence plate reader (Gemini-EM, […]) and analyzed with excitation and emission wavelength bands at 485 and 530 nm, respectively. Fluorescence readings were plotted against the Log [drug], and curve fitting performed by nonlinear regression to find the IC50 value.

Each structure is given as a SMILES string.

As usually defined, the IC50 is the concentration needed to halve the response being measured. Take `CN(CCCNc1ccnc2cc(Cl)ccc12)CCCN1c2ccccc2CCc2ccccc21` [RCQ_02, N′-(7-Chloro-quinolin-4-yl)-N-[3-(10,11-dihydro-dibenzo[b,f]azepin-5-yl)-propyl]-N-methyl-propane-1,3-diamine]: the IC50 was found to be 2.9 nM.
